From article PMC6695811, “Protein Phosphatase Ppz1 Is Not Regulated by a Hal3-Like Protein in Plant Pathogen Ustilago maydis” (International Journal of Molecular Sciences, 2019)

Experiments:
Experiment in all cases: phosphatase activity assay
Assay type in all cases: biochemical
Conditions in all cases: 10 mM pNPP
UmPpz1-s = molecular target: T1, UmPpz1-s (Mycosarcoma maydis, UniProt A0A0D1DW62)
T1 construct: gene UMAG_04827; short version lacking residues 1-8 (starts at Met9), pGEX-6p-1, E. coli BL21(DE3) RIL, GST tag cut by PreScission
T1 sequence (A0A0D1DW62 9-497): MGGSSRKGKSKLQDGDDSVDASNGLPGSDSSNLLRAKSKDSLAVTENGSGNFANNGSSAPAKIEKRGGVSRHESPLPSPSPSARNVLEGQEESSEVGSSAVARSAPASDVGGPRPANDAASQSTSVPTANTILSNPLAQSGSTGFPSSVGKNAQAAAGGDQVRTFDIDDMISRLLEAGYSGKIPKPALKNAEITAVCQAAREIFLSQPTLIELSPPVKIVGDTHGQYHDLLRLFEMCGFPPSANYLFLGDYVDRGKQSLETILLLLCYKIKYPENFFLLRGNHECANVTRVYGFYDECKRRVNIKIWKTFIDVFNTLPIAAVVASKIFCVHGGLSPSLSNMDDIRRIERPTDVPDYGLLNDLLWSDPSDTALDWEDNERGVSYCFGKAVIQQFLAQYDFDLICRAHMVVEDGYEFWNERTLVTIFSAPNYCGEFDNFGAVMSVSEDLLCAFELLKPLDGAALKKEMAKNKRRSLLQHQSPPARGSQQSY

UmPpz1 = molecular target: T2, UmPpz1 (Mycosarcoma maydis, UniProt A0A0D1DW62)
T2 construct: gene UMAG_04827; full-length ORF, 497 residues, from FB1 genomic DNA in pGEX-6p-1, E. coli BL21(DE3) RIL, GST tag cut by PreScission
T2 sequence (A0A0D1DW62 1-497): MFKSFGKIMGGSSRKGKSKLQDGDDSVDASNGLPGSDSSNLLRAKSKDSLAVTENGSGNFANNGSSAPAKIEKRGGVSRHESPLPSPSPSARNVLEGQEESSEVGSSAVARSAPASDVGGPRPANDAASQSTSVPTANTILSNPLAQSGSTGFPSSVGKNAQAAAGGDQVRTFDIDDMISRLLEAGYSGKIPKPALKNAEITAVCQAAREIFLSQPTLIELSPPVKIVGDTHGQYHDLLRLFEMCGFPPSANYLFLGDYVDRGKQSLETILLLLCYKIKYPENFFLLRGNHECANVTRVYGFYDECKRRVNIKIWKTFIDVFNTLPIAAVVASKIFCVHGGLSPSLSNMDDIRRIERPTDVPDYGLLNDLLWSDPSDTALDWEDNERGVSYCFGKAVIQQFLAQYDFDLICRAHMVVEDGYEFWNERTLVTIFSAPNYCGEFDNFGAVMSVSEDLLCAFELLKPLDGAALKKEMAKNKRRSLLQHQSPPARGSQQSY

ScPpz1 = molecular target: T3, ScPpz1 (Saccharomyces cerevisiae, UniProt P26570)
T3 construct: gene PPZ1; full length, 692 residues, GST fusion from E. coli BL21(DE3) RIL, GST tag cut by PreScission
T3 sequence (P26570 1-692): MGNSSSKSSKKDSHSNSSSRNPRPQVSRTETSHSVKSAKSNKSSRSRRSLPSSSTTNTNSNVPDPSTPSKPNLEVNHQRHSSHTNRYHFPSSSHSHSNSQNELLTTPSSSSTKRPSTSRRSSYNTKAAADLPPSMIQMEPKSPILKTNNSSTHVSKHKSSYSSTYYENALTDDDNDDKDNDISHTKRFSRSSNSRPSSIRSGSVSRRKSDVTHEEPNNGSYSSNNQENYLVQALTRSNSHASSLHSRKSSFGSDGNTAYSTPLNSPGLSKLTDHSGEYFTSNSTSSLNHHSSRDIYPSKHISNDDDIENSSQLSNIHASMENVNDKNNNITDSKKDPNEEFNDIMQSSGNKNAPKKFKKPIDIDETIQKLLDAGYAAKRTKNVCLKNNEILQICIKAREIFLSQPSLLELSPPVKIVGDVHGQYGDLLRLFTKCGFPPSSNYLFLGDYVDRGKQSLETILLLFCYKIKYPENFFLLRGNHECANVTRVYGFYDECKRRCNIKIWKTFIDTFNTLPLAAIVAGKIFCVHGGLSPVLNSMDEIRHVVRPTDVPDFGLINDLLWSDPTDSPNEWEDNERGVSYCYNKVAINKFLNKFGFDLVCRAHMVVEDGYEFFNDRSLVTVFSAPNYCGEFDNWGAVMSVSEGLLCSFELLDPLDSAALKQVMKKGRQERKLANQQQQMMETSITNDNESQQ

O=[N+]([O-])c1ccc(OP(=O)(O)O)cc1 [p-nitrophenylphosphate]
phosphatase activity assay (UmPpz1-s): The recombinant enzyme (as well as UmPpz1-s) showed phosphatase activity against the synthetic substrate pNPP
phosphatase activity assay (UmPpz1): showed phosphatase activity against the synthetic substrate pNPP
phosphatase activity assay (ScPpz1): substrate pNPP which was similar to that observed for ScPpz1
